# Results taken from US20020137733A1, “Macrocyclic anti-viral compounds” (priority 2000, published 2002).
# Like-named read-outs stand apart in the source and are kept apart here.
# Tests used:
# HSV-1 KOS = test: Anti-HSV CPE assay, HSV-1 KOS; assay type: cell-based, herpes simplex virus type 1
# Experimental: (§1) Human embryonic lung fibroblast (HEL) cells and Vero cells were propagated in minimal essential medium (MEM) supplemented with 10% fetal calf serum, L-glutamine, and bicarbonate. A CPE assay was used, confluent cultures of HEL or Vero cells grown in 96-well microtiter plates were inoculated with 100 times the 50% cell culture infective dose of the different HSV strains (HSV-1 KOS; HSV-1 Tk−, which is deficient for thymidine kinase; and HSV-2 G). Compounds were added after a 2 hours virus adsorption period. After 2 to 3 days incubation at 37 C. in 5% CO2 atmosphere, cells were fixed with ethanol and stained with 2.5% Giemsa solution. Virus-induced cytopathic effect (CPE) was then recorded microscopically. […] IC50 values were estimated from graphic plots of the number of plaques (percentage of control) or percentage of cytopathocity as a function of the concentration of the test compounds. Control compounds ganciclovir (GCV) and cidofovir ([(S)-1-(3-hydroxy-2-phosphonylmethoxypropyl)cytosine], HPMPC) were run in parallel.
# HSV-2 G = test: Anti-HSV CPE assay, HSV-2 G; assay type: cell-based, herpes simplex virus type 2
# Experimental: as §1
# HSV-1 Tk− = test: Anti-HSV CPE assay, HSV-1 Tk- (thymidine kinase deficient); assay type: cell-based, herpes simplex virus type 1
# Experimental: as §1
# Vero cells = test: Cytotoxicity, alteration of cell morphology (MTC), Vero cells; assay type: cell-based; conditions: Table 1
# Source text: (§2) Method 10. Cytotoxicity Measurements Based on Alteration of Cell Morphology
# (§3) Minimum toxic concentration which is expressed as MTC, is the minimum concentration of compound required to cause microscopically detectable alteration in normal cell morphology.
# (§4) MTC: Minimal toxic concentration or minimal concentration required to alter normal cell morphology (Visual examination)
# VZV YS strain = test: Anti-VZV plaque assay, YS strain (Tk+); assay type: cell-based, varicella zoster virus; conditions: read-out: ANTI-VZV ACTIVITY EC50 Plaque assay VZV Tk+ YS strain
# Experimental: (§5) Human embryonic lung fibroblast (HEL) cells were grown in 96-well plates at the confluent stage and then were infected with reference strains VZV expressing viral thymidine kinase (YS and Oka) or lacking the viral thymidine kinase (07-1 and YS-R) at 20 plaque-forming units (PFU) for plaque assay. After a 2 hours incubation, residual virus was removed and the infected cells were further incubated with Eagle's MEM culture medium supplemented with 2% inactivated FCS (fetal calf serum), 1% L-glutamine and 0.3% sodium bicarbonate containing dilution of the test compounds (in duplicate) After 5 days incubation at 37 C. in 5% CO2 atmosphere, cells were fixed with ethanol and stained with 2.5% Giemsa solution. Virus plaque formation was monitored microscopically. […] IC50 values were estimated from graphic plots of the number of plaques (percentage of control) as a function of the concentration of the test compounds.
# HEL cells = test: Cytotoxicity, alteration of cell morphology (MTC), HEL cells; conditions: for CYTOTOXICITY MTC HEL: Table 1 (anti-HSV study)
# Source text: as §2, §3, §4
# VZV 07/1 strain = test: microbe, parasite or virus in culture; assay type: cell-based, varicella zoster virus; conditions: Human alphaherpesvirus 3, HEL, read-out: ANTI-VZV ACTIVITY EC50 Plaque assay VZV Tk− 07/1 strain
# Experimental: as §5
# VZV OKA strain = test: microbe, parasite or virus in culture; assay type: cell-based, varicella zoster virus; conditions: Human alphaherpesvirus 3, HEL, read-out: ANTI-VZV ACTIVITY EC50 Plaque assay VZV Tk+ OKA strain
# Experimental: as §5
# VZV YS/R strain = test: microbe, parasite or virus in culture; assay type: cell-based, varicella zoster virus; conditions: Human alphaherpesvirus 3, HEL, read-out: ANTI-VZV ACTIVITY EC50 Plaque assay VZV Tk− YS/R strain
# Experimental: as §5
# EBV = test: Anti-EBV assay, EBV-specific DNA/DNA hybridization in P3HR-1 cells; assay type: cell-based, Epstein-Barr virus; conditions: read-out: ANTI-EBV ACTIVITY EC50 DNA hybridiation assay
# Experimental: To determine the effects of the compounds on EBV replication, exponentially growing P3HR-1 cells were treated for 14 days with various concentrations of the compounds. The cells were then harvested, and the genome copy numbers were determined using EBV-specific DNA/DNA hybridization technique. […] Control compound cidofovir ([(S)-1-(3-hydroxy-2-phosphonylmethoxypropyl)cytosine], HPMPC) was run in parallel.
# [1] = Cytotoxicity, inhibition of cell growth (CC50), P3HR cells; assay type: cell-based; conditions: human, Coulter counter
# Experimental: (§6) Method 9. Cytotoxicity Measurements Based on the Inhibition of Cell Growth
# (§7) Cells were seeded at a rate of 5×10^3 cells/well in 96-well plates and allowed to proliferate 24 hours. Different concentrations of the test compounds were then added (in duplicates), and after 3 days of incubation at 37 C. in 5% CO2 atmosphere, the cell number was determined with a coulter counter.
# in vitro = assay type: cell-based; conditions: human
# Source text: Method 11. Cytotoxicity Measurements Based on Reduction of Total Cellular DNA Content Expressed as CC50*
# HCMV Davis [2] = test: Anti-HCMV CPE assay; assay type: cell-based, cytomegalovirus; conditions: HEL cells, 100 PFU/well; for EC50: Human betaherpesvirus 5, HEL, read-out: ANTI-HCMV ACTIVITY EC50 HCMV-Davis CPE 100/well (96 well)
# Experimental: (§8) Method 4. Anti-HCMV Assay
# (§9) Human embryonic lung fibroblast cells (HEL) were grown in 96-well plates at the confluent stage and then were infected with reference strains of HCMV Davis at 8, 20, 38 plaque-forming units (PFU)/well for plaque assay or at 100 PFU/well for cytopathic effect (CPE) assay. After a 2 hours incubation, residual virus was removed and the infected cells were further incubated with Eagle's MEM culture medium supplemented with 2% inactivated FCS (fetal calf serum), 1% L-glutamine and 0.3% sodium bicarbonate containing dilution of the test compounds (in duplicate). After 7 days incubation at 37 C. in 5% CO2 atmosphere, cells were fixed with ethanol and stained with 2.5% Giemsa solution. Virus plaque formation or viral cytopathic effect were monitored microscopically. […] IC50 values were estimated from graphic plots of the number of plaques (percentage of control) or percentage of cytopathocity as a function of the concentration of the test compounds. Control compounds ganciclovir (GCV) and cidofovir ([(S)-1-(3-hydroxy-2-phosphonylmethoxypropyl)cytosine], HPMPC) were run in parallel.
# HCMV Davis [3] = test: Anti-HCMV plaque assay; assay type: cell-based, cytomegalovirus; conditions: for EC50: Human betaherpesvirus 5, HEL
# Experimental: as §8, §9
# [4] = Cytotoxicity, inhibition of cell growth (CC50), HEL cells; assay type: cell-based; conditions: human, Coulter counter
# Experimental: as §6, §7
# [5] = Human alphaherpesvirus 1, Vero cells, read-out: ANTI-HSV ACTIVITY EC50 CPE assay HSV-1-KOS Vero
# [6] = Human alphaherpesvirus 2, Vero, Vero cells, read-out: ANTI-HSV ACTIVITY EC50 CPE assay HSV-2-G Vero
# [7] = Human alphaherpesvirus 1, Vero, read-out: ANTI-HSV ACTIVITY EC50 CPE assay HSV-1Tk- Vero, Vero cells
# [8] = Human alphaherpesvirus 1, HEL cells, read-out: ANTI-HSV ACTIVITY EC50 CPE assay HSV-1-KOS HEL
# [9] = Human alphaherpesvirus 1, HEL, read-out: ANTI-HSV ACTIVITY EC50 CPE assay HSV-1Tk- HEL, HEL cells
# [10] = HEL cells, 8 PFU/well, read-out: ANTI-HCMV ACTIVITY EC50 HCMV-Davis Plaque assay 8/well
# [11] = HEL cells, 38 PFU/well, read-out: ANTI-HCMV ACTIVITY EC50 HCMV-Davis Plaque assay 38/well
structure (smiles),measurement,setting,value
"Nc1nc2c(ncn2COCCO)c(=O)[nH]1 [ACV, acyclovir]",EC50,HSV-1 KOS; [5],2.4 µg/mL
same,EC50,HSV-2 G; [6],1.3 µg/mL
same,EC50,HSV-1 Tk−; [7],33 µg/mL
same,CYTOTOXICITY MTC Vero,Vero cells,>10 µg/mL
same,EC50,"VZV YS strain; Human alphaherpesvirus 3, HEL cells, 20 PFU",0.69 µg/mL
"O=c1[nH]c(=O)n([C@H]2C[C@H](O)[C@@H](CO)O2)cc1/C=C/Br [BVDU, (E)-5-(2-bromovinyl)-2′-deoxyuridine]",CYTOTOXICITY HEL cells MTC,HEL cells; Table 3 (anti-VZV study),>50 µg/mL
same,EC50,"VZV YS strain; Human alphaherpesvirus 3, HEL",0.0013 µg/mL
same,EC50,VZV 07/1 strain,4 µg/mL
same,EC50,VZV OKA strain,0.0013 µg/mL
same,EC50,VZV YS/R strain,39 µg/mL
"Nc1ccn(C[C@@H](CO)OCP(=O)(O)O)c(=O)n1 [HPMPC, (S)-1-(3-hydroxy-2-phosphonylmethoxypropyl)cytosine]",EC50,HSV-1 KOS; [8],0.098 µg/mL
same,EC50,HSV-1 KOS; [5],6.7 µg/mL
same,EC50,"HSV-2 G; Human alphaherpesvirus 2, HEL, HEL cells, read-out: ANTI-HSV ACTIVITY EC50 CPE assay HSV-2-G HEL",0.01 µg/mL
same,EC50,HSV-2 G; [6],1.3 µg/mL
same,EC50,HSV-1 Tk−; [9],0.012 µg/mL
same,EC50,HSV-1 Tk−; [7],2.4 µg/mL
same,CYTOTOXICITY MTC Vero,Vero cells,>100 µg/mL
same,CYTOTOXICITY MTC HEL,HEL cells,>100 µg/mL
same,CYTOTOXICITY HEL cells MTC,HEL cells; Table 4 (anti-HCMV study),>100 ug/m/
same,EC50,"EBV; human gammaherpesvirus 4, 336 h, P3HR-1 cells, treated 14 days",< 25 µg/mL
same,CC50 at 3 days,[1],30 µg/mL
same,CC50,in vitro,> 25 µg/mL
same,EC50,HCMV Davis [2],0.1 µg/mL
same,EC50,HCMV Davis [3]; [10],0.15 µg/mL
same,EC50,"HCMV Davis [3]; HEL cells, 20 PFU/well, read-out: ANTI-HCMV ACTIVITY EC50 HCMV-Davis Plaque assay 20/well",0.14 µg/mL
same,EC50,HCMV Davis [3]; [11],1.9 µg/mL
same,CC50 at 3 days,[4],11 µg/mL
O=C1NCc2ccccc2OCC/C=C/c2cncc3ccc1nc23 [Compound #1],EC50,"HSV-1 KOS; Human alphaherpesvirus 1, HEL, read-out: ANTI-HSV ACTIVITY EC50 CPE assay HSV-1-KOS HEL",0.098 µg/mL
same,EC50,"HSV-1 KOS; Human alphaherpesvirus 1, Vero, read-out: ANTI-HSV ACTIVITY EC50 CPE assay HSV-1-KOS Vero",0.52 µg/mL
same,EC50,"HSV-2 G; Human alphaherpesvirus 2, HEL, read-out: ANTI-HSV ACTIVITY EC50 CPE assay HSV-2-G HEL",0.138 µg/mL
same,EC50,"HSV-2 G; Human alphaherpesvirus 2, Vero, read-out: ANTI-HSV ACTIVITY EC50 CPE assay HSV-2-G Vero",0.009 µg/mL
same,EC50,HSV-1 Tk−; [9],0.062 µg/mL
same,EC50,HSV-1 Tk−; [7],1.1 µg/mL
same,CYTOTOXICITY MTC Vero,Vero cells,25 µg/mL
same,CYTOTOXICITY MTC HEL,HEL cells,6 µg/mL
same,CYTOTOXICITY HEL cells MTC,HEL cells; Table 3 (anti-VZV study),>2 µg/mL
same,EC50,"EBV; human gammaherpesvirus 4, P3HR-1, 336 h",< 0.2 µg/mL
same,CC50 at 3 days,[1],0.7 µg/mL
same,CC50,in vitro,2.6 µg/mL
same,EC50,"VZV YS strain; Human alphaherpesvirus 3, HEL",0.05 µg/mL
same,EC50,VZV 07/1 strain,0.06 µg/mL
same,EC50,VZV OKA strain,0.06 µg/mL
same,EC50,VZV YS/R strain,0.05 µg/mL
same,EC50,HCMV Davis [3]; read-out: ANTI-HCMV ACTIVITY EC50 HCMV-Davis Plaque assay 8/well,< 0.0015 µg/mL
same,EC50,HCMV Davis [3]; read-out: ANTI-HCMV ACTIVITY EC50 HCMV-Davis Plaque assay 20/well,< 0.0015 µg/mL
same,EC50,HCMV Davis [3]; read-out: ANTI-HCMV ACTIVITY EC50 HCMV-Davis Plaque assay 38/well,0.003 µg/mL
same,CC50 at 3 days,[4],0.1 µg/mL
"Nc1nc(O)c2ncn(COC(CO)CO)c2n1 [GCV, 9-[(1,3-dihyroxy-2-propoxy)methyl]guanine]",EC50,HSV-1 KOS; [8],0.01 µg/mL
same,EC50,HSV-1 KOS; [5],2.6 µg/mL
same,EC50,HSV-2 G; [6],1.2 µg/mL
same,ANTI-HSV ACTIVITY EC50 CPE assay HSV-1Tk- HEL,HSV-1 Tk−; HEL cells,17.4 µg/mL
same,EC50,HSV-1 Tk−; [9],12.5 µg/mL
same,EC50,HSV-1 Tk−; [7],> 100 µg/mL
same,CYTOTOXICITY MTC Vero,Vero cells,>100 µg/mL
same,CYTOTOXICITY MTC HEL,HEL cells,>100 µg/mL
same,CYTOTOXICITY HEL cells MTC,HEL cells; Table 4 (anti-HCMV study),>100 ug/m/
same,ANTI-HCMV ACTIVITY EC50 HCMV-Davis CPE 100/well (96 well),HCMV Davis [2],0.78 µg/mL
same,EC50,HCMV Davis [2],0.98 µg/mL
same,ANTI-HCMV ACTIVITY EC50 HCMV-Davis Plaque assay 8/well,"HCMV Davis [3]; HEL cells, 8 PFU/well",0.86 µg/mL
same,EC50,HCMV Davis [3]; [10],0.94 µg/mL
same,EC50,HCMV Davis [3]; [11],> 100 µg/mL
same,CC50 at 3 days,[4],23 µg/mL
